Reference: patent US8513227B2, “Inhibition of inflammatory cytokine production with tanshinones” (The Feinstein Institute for Medical Research, priority 2006, dated 2013)

Assays:
nitric oxide = assay: LPS-induced nitric oxide release (Griess reaction); format: cell-based, murine; conditions: 100 μM, FIG. 2A lower panel
Procedure: LPS stimulation. Adherent macrophages or monocytes were gently washed with, and cultured in, serum-free OPTI-MEM I medium two hours before stimulation with bacterial endotoxin (lipopolysaccharide, LPS, E. coli 0111:B4, Sigma-Aldrich). At 16 hours after LPS stimulation, levels of HMGB1 in the culture medium were determined as previously described (Chen et al. 2004; Rendon-Mitchell et al. 2003; Wang et al. 1999).
Nitric oxide assay. The levels of nitric oxide in the culture medium were determined indirectly by measuring NO^2− production with a colorimetric assay based on the Griess reaction (Rendon-Mitchell et al. 2003). NO2-concentrations were determined with reference to a standard curve generated with sodium nitrite at various dilutions.

TNF = assay: LPS-induced TNF release in human peripheral blood mononuclear cells (ELISA); format: cell-based; conditions: 100 μM, FIG. 2B lower panel
Procedure: Cell culture. Murine macrophage-like RAW 264.7 cells were obtained from the American Type Culture Collection (ATCC, Rockville, Md.), and primary peritoneal macrophages were isolated from Balb/C mice (male, 7-8 weeks, 20-25 grams) at 2-3 days after intraperitoneal injection of 2 ml thioglycollate broth (4%) as previously described (Chen et al. 2004; Rendon-Mitchell et al. 2003). Murine macrophages were pre-cultured in RPMI 1640 medium (Gibco BRL, Grand Island, N.Y.) supplemented with 10% fetal bovine serum (FBS) and 2 mmol/L glutamine. […]
LPS stimulation. […] At 16 hours after LPS stimulation, levels of HMGB1 in the culture medium were determined as previously described (Chen et al. 2004; Rendon-Mitchell et al. 2003; Wang et al. 1999).
TNF ELISA. The levels of TNF in the culture medium or serum were determined using commercial enzyme linked immunosorbent assay (ELISA) kits (Catalog no. MTA00, R & D Systems, Minneapolis, Minn.) with reference to standard curves of purified recombinant TNF at various dilutions as previously described (Chen et al. 2004; Rendon-Mitchell et al. 2003; Wang et al. 2006).

62 cytokines = assay: Cytokine antibody array of LPS-stimulated macrophage culture medium; format: cell-based, murine
Procedure: Cytokine antibody array. Murine cytokine antibody array (Cat. No. M0308003, RayBiotech Inc., Norcross, Ga., USA), which detects 62 cytokines on one membrane, was used to determine the profile of cytokines in the culture medium following the manufacturer's instructions. Briefly, the membranes were sequentially incubated with equal volume of cell-conditioned culture medium, primary biotin-conjugated antibody, and horseradish peroxidase-conjugated streptavidin. After exposing to X-ray film, the relative signal intensity was determined using the NIH image 1.59 software with reference to the positive controls on the membrane.

[1] = test system: sepsis-induced cardiovascular dysfunction; assay: Sepsis-induced cardiovascular dysfunction in CLP rats (radiolabeled microspheres); format: in vivo, Sprague-Dawley rats; conditions: 20 h after CLP
Procedure: Animal models of endotoxemia and sepsis. This study was approved and performed in accordance with the guidelines for the care and use of laboratory animals at the Feinstein Institute for Medical Research, Manhasset, N.Y. Endotoxemia was induced in Balb/C mice (male, 7-8 weeks) by intraperitoneal injection of bacterial endotoxin (LPS, 15 mg/kg) as previously described (Chen et al. 2005; Wang et al. 1999; Wang et al. 2006). Sepsis was induced in male Balb/C mice (7-8 weeks, 20-25 g) or Sprague-Dawley rats (290-310 g) by cecal ligation and puncture (CLP) as previously described (Wang et al. 2006; Yang et al. 2002b). Herbal components were administered intraperitoneally into mice at indicated doses and time points, and mice were monitored for survival for up to two weeks. In parallel experiments, mice were euthanized to collect blood at 28 h (following two doses of herbal components at −0.5 and +24 h) after endotoxemia, and at 52 h (following two doses of herbal components at +24 and +48 h) after CLP.
Measurement of cardiac output. A radiolabeled microsphere technique was used to measure cardiac output at 20 h after CLP or sham operation as previously described (Yang et al. 2002b). Briefly, a bolus of ^141Ce-labeled microspheres (4.0 μCi, DuPont NEN, Boston, Mass.) was injected into the left ventricle, where it mixed uniformly with the oxygenated blood at the root of the aorta, and subsequently distributed via aortic blood flow to the capillary beds within each organ. The reference blood sample was withdrawn from the femoral arterial catheter (at a rate of 0.7 ml/min) with a pump (Harvard Apparatus, Holliston, Mass.), after which isotonic sodium chloride solution was infused manually to replace the volume of blood lost. At 20 h post CLP, animals were sacrificed to harvest various organs for measurement of radioactivity with an automatic gamma counter (1470 Wizard; Wallac, Gaithersburg, Md.). Cardiac output and organ blood flow were calculated according to the following equations: cardiac output=[(RBF×CT)/Cr]× 1/100 and organ blood flow=[(RBF×Ct)/Cr]× 1/100, where RBF is the reference blood sample withdrawal rate (0.7 ml/min), CT is counts per minute of total injected dose, Ct is counts per minute per gram of tissue, and Cr is counts per minute in the reference blood sample. Stroke volume (SV) and total peripheral resistance (TPR) were calculated as previously described (Yang et al. 2002b).

HMGB1 = assay: HMGB1-induced release of TNF and nitric oxide in murine macrophage cultures; format: cell-based; conditions: concentrations up to 100 μM, preliminary data

Question: Which results are given for `Cc1c(S(=O)(=O)[O-])oc2c1C(=O)C(=O)c1c-2ccc2c1CCCC2(C)C.[Na+]` [TSNIIA-SS, tanshinone IIA sodium sulfonate]?
Answer: effect on LPS-induced release of nitric oxide (nitric oxide): did not completely block; effect on LPS-induced release of TNF (TNF): did not completely block; attenuation of LPS-induced release of IL-1α (62 cytokines; 100 μM, cytokine array): 50±7%; attenuation of LPS-induced release of IL-12p70 (62 cytokines; 100 μM, cytokine array): 45±5%; attenuation of LPS-induced release of MCP-5 (62 cytokines; 100 μM, cytokine array): 25±5%; attenuation of LPS-induced release of platelet factor 4 (PF-4) (62 cytokines; 100 μM, cytokine array): 35±6%; effect on release of most cytokines, including IL-6, IL-12p40/p70, KC, MCP-1, MIP-1α, MIP-1γ, MIP-2 and TNF (62 cytokines; 100 μM, RAW 264.7 cells or primary peritoneal macrophages): did not suppress; number of other cytokines whose release is not affected (62 cytokines; at concentrations that completely abrogate LPS-induced HMGB1 release): 58 out of 62; heart rate ([1]; 15 mg/kg, CLP group 378.3±25.1, n=6, p<0.05): 334.1±25.8 beats/minutes; total peripheral vascular resistance ([1]; FIG. 8A): dose-dependently reduced; cardiac stroke volume ([1]; FIG. 8B): significantly increased; cardiac output ([1]; FIG. 8C): significantly increased; mean arterial blood pressure ([1]; CLP group 106.1±4.7, n=6, p>0.05): 96.4±8.7 mm Hg; attenuation of HMGB1-induced release of TNF (HMGB1): 50-60%; attenuation of HMGB1-induced release of nitric oxide (HMGB1): 90-95%
